Patent US12060592B2, “Lov-D acyltransferase mediated acylation” (priority 2009, dated 2024)

Molecular target: T1, LovD acyltransferase (Aspergillus terreus, UniProt Q9Y7D1)
T1 sequence (Q9Y7D1 1-413): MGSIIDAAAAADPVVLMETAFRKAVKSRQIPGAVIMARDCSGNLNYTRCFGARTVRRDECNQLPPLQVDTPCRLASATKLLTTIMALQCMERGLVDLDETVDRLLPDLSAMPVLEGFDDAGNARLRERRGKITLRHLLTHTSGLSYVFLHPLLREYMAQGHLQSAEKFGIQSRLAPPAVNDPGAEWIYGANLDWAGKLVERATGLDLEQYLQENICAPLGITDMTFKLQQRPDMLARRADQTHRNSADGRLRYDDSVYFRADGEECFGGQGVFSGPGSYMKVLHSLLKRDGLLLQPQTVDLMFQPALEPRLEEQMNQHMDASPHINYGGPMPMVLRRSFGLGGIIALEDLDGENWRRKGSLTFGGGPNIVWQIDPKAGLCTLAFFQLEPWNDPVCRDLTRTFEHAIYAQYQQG
Test: LovD acyltransferase mediated acylation: relative activity of thioester acyl donors
Type: biochemical
Conditions: thioester as acyl donor
Text: Any one or more compounds shown in Table 1 may be used as thioesters in the methods of the present disclosure. Compound IV is one preferred thioester as its relative activity is high.

SMILES	Relative activity at 24 h (%)
CCC(C)(C)C(=O)SC [VI]	+ (+ = 0-1)
CCSC(=O)C(C)(C)CC [VII]	++ (++ = 1-10)
CCCCSC(=O)C(C)(C)CC [IX]	+++ (+++ = 10-75)
CCC(C)(C)C(=O)SC(C)C [VIII]	+ (+ = 0-1)
CCC(C)(C)C(=O)SCC(=O)OC [V]	++ (++ = 1-10)
CCC(C)(C)C(=O)SCCC(=O)OC [Compound IV]	++++ (++++ = 75-100)
